Results as given in patent US11236084B2, “Substituted azaindoline derivatives as NIK inhibitors” (Janssen Pharmaceutica NV, priority 2017, dated 2022).
Like-named read-outs stand apart in the source and are kept apart here.

Molecular target: recombinant human NF-kappaB-inducing kinase (NIK/MAP3K14) (Homo sapiens, UniProt Q99558)
Assay: Biological Assay B: inhibition of auto-phosphorylation of recombinant human NIK/MAP3K14 (AlphaScreen), performed at 2 locations
Assay type: biochemical
Settings: averaged values
Summary of the method: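 GST-tagged NIK (0.2 nM) auto-phosphorylation with 25 microM ATP in 50 mM Tris pH 7.5, 5 mM MgCl2, 1% DMSO, 1 h at 25° C. Anti-phospho-IKK Ser176/180 AlphaScreen readout; blank-subtracted IC50 from sigmoidal fit. Run at two sites.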

[1] = location 1, AlphaScreen auto-phosphorylation, read-out: Assay B location 1 IC50
[2] = location 2, AlphaScreen auto-phosphorylation, read-out: Assay B location 2 IC50
[3] = location 2, NIK auto-phosphorylation, AlphaScreen, read-out: Assay B location 2 IC50

Chain of recombinant human NF-kappaB-inducing kinase (NIK/MAP3K14) (Q99558 whole entry): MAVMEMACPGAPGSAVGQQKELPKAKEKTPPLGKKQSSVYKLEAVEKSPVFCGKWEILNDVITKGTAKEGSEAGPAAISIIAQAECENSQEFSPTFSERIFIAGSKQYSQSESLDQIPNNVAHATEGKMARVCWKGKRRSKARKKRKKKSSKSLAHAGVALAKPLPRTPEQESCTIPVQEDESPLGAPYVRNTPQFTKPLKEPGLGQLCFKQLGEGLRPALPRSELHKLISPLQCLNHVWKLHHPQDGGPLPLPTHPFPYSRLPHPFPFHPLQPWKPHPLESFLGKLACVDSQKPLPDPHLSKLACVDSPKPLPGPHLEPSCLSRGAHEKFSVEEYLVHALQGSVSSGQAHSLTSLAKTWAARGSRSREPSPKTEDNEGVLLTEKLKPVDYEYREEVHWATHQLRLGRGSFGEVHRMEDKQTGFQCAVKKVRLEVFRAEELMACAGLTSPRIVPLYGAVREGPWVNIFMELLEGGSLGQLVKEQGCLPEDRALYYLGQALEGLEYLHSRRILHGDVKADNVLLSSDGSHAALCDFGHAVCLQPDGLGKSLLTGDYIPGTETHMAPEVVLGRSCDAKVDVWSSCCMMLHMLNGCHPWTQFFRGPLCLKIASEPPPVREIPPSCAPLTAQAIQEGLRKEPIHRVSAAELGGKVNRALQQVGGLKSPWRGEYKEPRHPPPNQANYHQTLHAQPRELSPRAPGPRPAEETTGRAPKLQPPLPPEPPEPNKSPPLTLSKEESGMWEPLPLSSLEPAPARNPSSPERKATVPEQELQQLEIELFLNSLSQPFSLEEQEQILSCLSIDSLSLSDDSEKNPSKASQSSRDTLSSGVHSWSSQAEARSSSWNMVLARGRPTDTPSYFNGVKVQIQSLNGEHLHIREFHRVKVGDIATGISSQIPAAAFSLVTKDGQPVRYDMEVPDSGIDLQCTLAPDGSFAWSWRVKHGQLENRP

Compound	IC50 [1]	IC50 [2]	IC50 [3]	IC50 (location 1, NIK auto-phosphorylation, AlphaScreen, read-out: Assay B location 1 IC50)
CCN1CCN(c2cc(OC)c(Nc3nccc(-c4cnc5c(c4)C(C)(CO)CN5)n3)cc2C#N)CC1 (stereo not shown) [Compound 279]		2.7 nM		
COc1cc(N2CCN(C)CC2)c(C#N)cc1Nc1nccc(-c2cnc3c(c2)C(C)(CO)CN3)n1 (stereo not shown) [Compound 280]	6.9 nM	2.5 nM		
Cc1cc(N2CC3(CCOCC3)C2)c(F)cc1Nc1nccc(-c2cnc3c(c2)C(C)(CO)CN3)n1 (stereo not shown) [Compound 281]	15.9 nM	3 nM		
COc1cc(N2CCOCC2)c(F)cc1Nc1nccc(-c2cnc3c(c2)C(C)(C)CN3)n1 [Compound 282]	77.6 nM	13.8 nM		
COc1cc(OC2CCN(C)CC2)c(F)cc1Nc1nccc(-c2cnc3c(c2)C(C)(CO)CN3)n1 (stereo not shown) [Compound 283]	5.3 nM	2.8 nM		
COc1cc(N2CC(C)(C)C2)c(Cl)cc1Nc1nccc(-c2cnc3c(c2)C(C)(CO)CN3)n1 (stereo not shown) [Compound 304]	18.2 nM	5.9 nM		
COc1c(Nc2nccc(-c3cnc4c(c3)C(C)(CO)CN4)n2)cc(Cl)cc1N1CCOCC1 (stereo not shown) [Compound 307]	12.3 nM	3.1 nM		
COc1cc(N2CC(C)(O)C2)c(Cl)cc1Nc1nccc(-c2cnc3c(c2)C(C)(CO)CN3)n1 (stereo not shown) [Compound 313]	6.9 nM	4.9 nM		
COc1cc(OCCN(C)C)c(Cl)cc1Nc1nccc(-c2cnc3c(c2)C(C)(CO)CN3)n1 (stereo not shown) [Compound 314]	4.1 nM	3.1 nM		
COCC(C)(C)CNc1cc(OC)c(Nc2nccc(-c3cnc4c(c3)C(C)(CO)CN4)n2)cc1F (stereo not shown) [Compound 323]	22.9 nM	7.2 nM		
COc1cc(CN2CCOCC2)c(Cl)cc1Nc1nccc(-c2cnc3c(c2)C(C)(CO)CN3)n1 (stereo not shown) [Compound 324]	7.9 nM	3.8 nM		
COc1cc(N2CCC(O)C2)c(Cl)cc1Nc1nccc(-c2cnc3c(c2)C(C)(CO)CN3)n1 (stereo not shown) [Compound 325]		3.6 nM		
COc1cc(N2CCC(O)CC2)c(Cl)cc1Nc1nccc(-c2cnc3c(c2)C(C)(C)CN3)n1 [Compound 336]			3.6 nM	
CCN1CCN(Cc2cc(OC)c(Nc3nccc(-c4cnc5c(c4)C(C)(CO)CN5)n3)cc2Cl)CC1 (stereo not shown) [Compound 337]			1.6 nM	
COc1cc(CO)c(Cl)cc1Nc1nccc(-c2cnc3c(c2)C(C)(C)CN3)n1 [Compound 339]			5.6 nM	
COc1cc(OCCN2CCOCC2)c(Cl)cc1Nc1nccc(-c2cnc3c(c2)C(C)(CO)CN3)n1 (stereo not shown) [Compound 340]			2.6 nM	
COc1cc(N2CC3(CCOCC3)C2)c(Cl)cc1Nc1ncc(F)c(-c2cnc3c(c2)C(C)(CO)CN3)n1 (stereo not shown) [Compound 346]				7.4 nM
CCOC1CN(c2cc(OC)c(Nc3nccc(-c4cnc5c(c4)C(C)(CO)CN5)n3)cc2Cl)C1 (stereo not shown) [Compound 357]	12 nM	10 nM		
Cc1cc(N2CCOCC2)c(Cl)cc1Nc1nccc(-c2cnc3c(c2)C(C)(CO)CN3)n1 (stereo not shown) [Compound 361]	7.8 nM	3.7 nM		
CC1(CO)CNc2ncc(-c3ccnc(Nc4cc(Cl)c(N5CCOCC5)cc4Cl)n3)cc21 (stereo not shown) [Compound 362]	6.9 nM	3.6 nM		
Cc1cc(N2CCOCC2)c(C#N)cc1Nc1nccc(-c2cnc3c(c2)C(C)(CO)CN3)n1 (stereo not shown) [Compound 363]	17.8 nM	10.7 nM		
CC1(CO)CNc2ncc(-c3ccnc(Nc4cc(C#N)c(N5CCOCC5)cc4Cl)n3)cc21 (stereo not shown) [Compound 364]	10.2 nM	6.9 nM		
CC1(CO)CNc2ncc(-c3ccnc(Nc4cc(F)c(N5CCOCC5)cc4Cl)n3)cc21 (stereo not shown) [Compound 365]	13.8 nM	11 nM		

Results, then the molecule that gave them:

IC50 [1]	IC50 [2]	IC50 [3]	IC50 (location 1, NIK auto-phosphorylation, AlphaScreen, read-out: Assay B location 1 IC50)	Compound
4.7 nM	1 nM			COc1cc(N2CCC(N(C)C)C2)c(Cl)cc1Nc1nccc(-c2cnc3c(c2)C(C)(CO)CN3)n1 (stereo not shown) [Compound 278]
7.4 nM	1.1 nM			COc1cc(N2CC3(CCOC3)C2)c(Cl)cc1Nc1nccc(-c2cnc3c(c2)C(C)(CO)CN3)n1 (stereo not shown) [Compound 284]
7.8 nM	1.8 nM			COc1cc(N2CCC(OC)C2)c(Cl)cc1Nc1nccc(-c2cnc3c(c2)C(C)(CO)CN3)n1 (stereo not shown) [Compound 285]
3.9 nM	1.3 nM			COc1cc(N2CC(OC)C2)c(Cl)cc1Nc1nccc(-c2cnc3c(c2)C(C)(CO)CN3)n1 (stereo not shown) [Compound 287]
3.6 nM	1.2 nM			COc1cc(N2CC(N(C)C)C2)c(Cl)cc1Nc1nccc(-c2cnc3c(c2)C(C)(CO)CN3)n1 (stereo not shown) [Compound 289]
3.1 nM	1.4 nM			COc1cc(C(=O)N2CCC(OC)C2)c(Cl)cc1Nc1nccc(-c2cnc3c(c2)C(C)(CO)CN3)n1 (stereo not shown) [Compound 290]
4.3 nM	1.6 nM			COc1cc(C(=O)N2CCC(OC)C2)c(Cl)cc1Nc1nccc(-c2cnc3c(c2)C(C)(C)CN3)n1 (stereo not shown) [Compound 292]
12 nM	2.3 nM			COc1cc(N2CCC2)c(Cl)cc1Nc1nccc(-c2cnc3c(c2)C(C)(CO)CN3)n1 (stereo not shown) [Compound 294]
5.3 nM	1.2 nM			COc1cc(C(=O)N2CCC(OC)CC2)c(Cl)cc1Nc1nccc(-c2cnc3c(c2)C(C)(CO)CN3)n1 (stereo not shown) [Compound 296]
	1.7 nM			COc1cc(N2CC(O)C2)c(Cl)cc1Nc1nccc(-c2cnc3c(c2)C(C)(CO)CN3)n1 (stereo not shown) [Compound 302]
6.8 nM	2.2 nM			COc1cc(N2CCN(C3CC3)CC2)c(Cl)cc1Nc1nccc(-c2cnc3c(c2)C(C)(CO)CN3)n1 (stereo not shown) [Compound 309]
3.9 nM	0.9 nM			COCCN1CCN(c2cc(OC)c(Nc3nccc(-c4cnc5c(c4)C(C)(CO)CN5)n3)cc2Cl)CC1 (stereo not shown) [Compound 311]
1.6 nM	1.7 nM			COc1cc(C2CCN(C)CC2)c(Cl)cc1Nc1nccc(-c2cnc3c(c2)C(C)(CO)CN3)n1 (stereo not shown) [Compound 317]
4.9 nM	1.5 nM			CCN1CCN(c2cc(OC)c(Nc3nccc(-c4cnc5c(c4)C(C)(CO)CN5)n3)cc2C)CC1 (stereo not shown) [Compound 318]
4.2 nM	1.2 nM			COCCN1CCC(c2cc(OC)c(Nc3nccc(-c4cnc5c(c4)C(C)(CO)CN5)n3)cc2Cl)CC1 (stereo not shown) [Compound 319]
2.7 nM	1 nM			COc1cc(OCCN2CCN(C)CC2)c(Cl)cc1Nc1nccc(-c2cnc3c(c2)C(C)(CO)CN3)n1 (stereo not shown) [Compound 320]
3.6 nM	1.6 nM			COCCN1CC(c2cc(OC)c(Nc3nccc(-c4cnc5c(c4)C(C)(CO)CN5)n3)cc2Cl)C1 (stereo not shown) [Compound 321]
	1.7 nM			COc1cc(OCC(=O)N(C)C)c(Cl)cc1Nc1nccc(-c2cnc3c(c2)C(C)(CO)CN3)n1 (stereo not shown) [Compound 322]
6.3 nM	2.3 nM			COc1cc(N2CCC(OC)CC2)c(Cl)cc1Nc1nccc(-c2cnc3c(c2)C(C)(CO)CN3)n1 (stereo not shown) [Compound 327]
	1.5 nM			CCN1CCN(C(=O)c2cc(OC)c(Nc3nccc(-c4cnc5c(c4)C(C)(CO)CN5)n3)cc2Cl)CC1 (stereo not shown) [Compound 328]
3.8 nM	1.7 nM			CCN1CCN(c2cc(OC)c(Nc3nccc(-c4cnc5c(c4)C(C)(C)CN5)n3)cc2Cl)CC1 [Compound 329]
3.6 nM	0.7 nM			COc1cc(N2CCC(N(C)C)CC2)c(Cl)cc1Nc1nccc(-c2cnc3c(c2)C(C)(C)CN3)n1 [Compound 330]
	1.1 nM			COc1cc(CO)c(Cl)cc1Nc1nccc(-c2cnc3c(c2)C(C)(CO)CN3)n1 (stereo not shown) [Compound 332]
	2.2 nM			COc1cc(N2CCC(C)(O)CC2)c(Cl)cc1Nc1nccc(-c2cnc3c(c2)C(C)(CO)CN3)n1 (stereo not shown) [Compound 333]
